Test results published in patent publication US11371055B2, “Herbicide resistance genes” (CORTEVA AGRISCIENCE LLC, priority 2005, dated 2022).

Key:
[1] = test system: AAD-12 (v1) T1 tobacco plants; assay: Cross tolerance of T1 tobacco to phenoxy and pyridyloxy auxin herbicides; format: in vivo, Nicotiana tabacum
Excerpt: (§1) Two to four T0 individuals surviving high rates of 2,4-D and fluroxypyr were saved from each event and allowed to self fertilize in the greenhouse to give rise to T1 seed. The T1 seed was stratified, and sown into selection trays much like that of Arabidopsis (Example 7.4), followed by selective removal of untransformed nulls in this segregating population with 560 g ai/ha glufosinate (PAT gene selection). Survivors were transferred to individual 3-inch pots in the greenhouse. These lines provided high levels of resistance to 2,4-D in the T0 generation. Improved consistency of response is anticipated in T1 plants not having come directly from tissue culture. These plants were compared against wildtype KY160 tobacco. All plants were sprayed with a track sprayer set at 187 L/ha. The plants were sprayed from a range of 140-2240 g ac/ha 2,4-D dimethylamine salt (DMA), 70-1120 g ace/ha triclopyr or 35-560 g ae/ha fluroxypyr. All applications were formulated in water. Each treatment was replicated 2-4 times. Plants were evaluated at 3 and 14 days after treatment. Plants were assigned injury rating with respect to stunting, chlorosis, and necrosis. The T1 generation is segregating, so some variable response is expected due to difference in zygosity.

wildtype KY160 tobacco = assay: Cross tolerance test, wildtype tobacco; format: in vivo, Nicotiana tabacum
Excerpt: as §1

[2] = test system: AAD-12 (v1) tobacco lines (pDAS1580-[1]-018.001, pDAS1580-[1]-004.001, pDAS1580-[1]-020.016); assay: Field tolerance of tobacco, AAD-12 lines; format: in vivo, Nicotiana tabacum
Experimental: (§2) Field level tolerance trials were conducted on three AAD-12 (v1) lines (events pDAS1580-[1]-018.001, pDAS1580-[1]-004.001 and pDAS1580-[1]-020.016) and one wild-type line (KY160) at field stations in Indiana and Mississippi. Tobacco transplants were grown in the greenhouse by planting T1 seed in 72 well transplant flats (Hummert International) containing Metro 360 media according to growing conditions indicated above. The null plants were selectively removed by Liberty selection as previously described. The transplant plants were transported to the field stations and planted at either 14 or 24 inches apart using industrial vegetable planters. Drip irrigation at the Mississippi site and overhead irrigation at the Indiana site were used to keep plants growing vigorously.
(§3) The experimental design was a split plot design with 4 replications. The main plot was herbicide treatment and the sub-plot was tobacco line. The herbicide treatments were 2,4-D (dimethylamine salt) at 280, 560, 1120, 2240 and 4480 g ac/ha, triclopyr at 840 g ae/ha, fluroxypyr at 280 g ac/ha and an untreated control. Plots were one row by 25-30 ft. Herbicide treatments were applied 3-4 weeks after transplanting using compressed air backpack sprayer delivering 187 L/ha carrier volume at 130-200 kpa pressure. Visual rating of injury, growth inhibition, and epinasty were taken at 7, 14 and 21 days after treatment.

[3] = test system: wild-type tobacco line (KY160); assay: Field tolerance of tobacco, wild-type line; format: in vivo, Nicotiana tabacum
Experimental: as §2, §3

[4] = test system: AAD-12 (v1) (pDAS1580) T2 tobacco plants; assay: Auxinic herbicide cross tolerance of stacked tobacco, AAD-12 T2; format: in vivo, Nicotiana tabacum
Experimental: (§4) Homozygous AAD-12 (v1) (pDAS1580) and AAD-1 (v3) (pDAB721) plants (see PCT/US2005/014737 for the latter) were both reciprocally crossed and F1 seed was collected. The F1 seed from two reciprocal crosses of each gene were stratified and treated 4 reps of each cross were treated under the same spray regimen as used for the other testing with one of the following treatments: 70, 140, 280 g ac/ha fluroxypyr (selective for the AAD-12 (v1) gene); 280, 560, 1120 g ae/ha R-dichloroprop (selective for the AAD-1 (v3) gene); or 560, 1120, 2240 g ae/ha 2,4-D DMA (to confirm 2,4-D tolerance). Homozygous T2 plants of each gene were also planted for use as controls. Plants were graded at 3 and 14 DAT.

[5] = test system: AAD-1 (v3) (pDAB721) T2 tobacco plants; assay: Auxinic herbicide cross tolerance of stacked tobacco, AAD-1 T2; format: in vivo, Nicotiana tabacum
Experimental: as §4

[6] = test system: AAD-12 x AAD-1 F1 cross tobacco; assay: Auxinic herbicide cross tolerance of stacked tobacco, F1 cross; format: in vivo, Nicotiana tabacum; settings: AAD-12 (v1) x AAD (v3) F1
Experimental: as §4

[7] = test system: wild-type canola (Nex710); assay: Field tolerance of canola, wild-type; format: in vivo, Brassica napus
Experimental: Field level tolerance trial was conducted on two AAD-12 (v1) events 3759(20)018.001 and 3759(18)030.001 and a wild-type canola (Nex710) in Fowler, Ind. The experimental design was a randomized complete block design with 3 replications. Herbicide treatments were 2,4-D (dimethylamine salt) at 280, 560, 1120, 2240 and 4480 g ac/ha, triclopyr at 840 g ae/ha, fluroxypyr at 280 g ae/ha and an untreated control. Within each herbicide treatment, single 20 ft row/event for event 3759(18)030.0011, 3759(18)018.001 and wild-type line (Nex710) were planted with a 4 row drill on 8 inch row spacing. Herbicide treatments were applied when canola reached the 4-6 leaf stage using compressed air backpack sprayer delivering 187 L/ha carrier volume at 130-200 kpa pressure. Visual injury ratings were taken at 7, 14 and 21 days after application.

[8] = Fluroxypyr at 280 g ae/ha, 14 DAT

In the case of `Nc1c(Cl)c(F)nc(OCC(=O)O)c1Cl` [Fluroxypyr], the injury ([1]; 35-560 g ae/ha fluroxypyr) is reported as “greatest injury”, the “Average % Injury of Replicates 14 DAT” value ([1]; T1 1580(1)-004, 35 g ae/ha) is reported as 0% and the “Average % Injury of Replicates 14 DAT” value ([1]; T1 1580(1)-004, 140 g ae/ha) is reported as 0%. The “Average % Injury of Replicates 14 DAT” value ([1]; T1 1580(1)-004, 560 g ae/ha) was 3%, the “Average % Injury of Replicates 14 DAT” value ([1]; T1 1580(1)-018, 35 g ae/ha) was 8% and the “Average % Injury of Replicates 14 DAT” value ([1]; T1 1580(1)-018, 140 g ae/ha) was 10%. For the same molecule, the “Average % Injury of Replicates 14 DAT” value ([1]; T1 1580(1)-018, 560 g ae/ha) was 18%, the “Average % Injury of Replicates 14 DAT” value (wildtype KY160 tobacco; 35 g ae/ha) was 85% and the “Average % Injury of Replicates 14 DAT” value (wildtype KY160 tobacco; 140 g ae/ha) was 93%. For the same molecule, the “Average % Injury of Replicates 14 DAT” value (wildtype KY160 tobacco; 560 g ae/ha) was 100%, the average injury [2, 8] was 11% and the “Average % Injury across locations at 14 DAT” value ([2]; pDAS1580-[1]-004.001, 280 GM AE/HA) was 11%. The “Average % Injury across locations at 14 DAT” value ([2]; pDAS1580-[1]-018.001, 280 GM AE/HA) was 12%, the “Average % Injury across locations at 14 DAT” value ([2]; pDAS1580-[1]-020.016, 280 GM AE/HA) was 11% and the injury [3, 8] was 99%. For the same molecule, the “Average % Injury across locations at 14 DAT” value ([3]; Wild type, 280 GM AE/HA) was 99%, the “Average % injury 14 DAT” value ([4]; 70 g ae/ha) was 0% and the “Average % injury 14 DAT” value ([4]; 140 g ae/ha) was 0%. For the same molecule, the “Average % injury 14 DAT” value ([5]; 70 g ae/ha) was 40%, the “Average % injury 14 DAT” value ([5]; 140 g ae/ha) was 60% and the “Average % injury 14 DAT” value ([6]; 70 g ae/ha) was 0%. For the same molecule, the “Average % injury 14 DAT” value ([6]; 140 g ae/ha) was 0%, the visual injury ([7]; Fluroxypyr at 280 g ae/ha, 14DAA) was 37% and the “% Visual Injury at 14 DAT” value ([7]; Wild Type (Nex710), 280 GM AE/HA) was 37 ab %.
